Laboratory results published in the supplement of paper PMC10307832.

Experiments:
Experiment in all cases: relative viability (nuclei count vs DMSO), 5 days (fraction); higher = more cells survive
HCC-78 = test system: HCC-78
How it was run: (§1)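 After 5 days of treatment, lung cancer cells in 1536-well plates were fixed and stained in a single step (final 0.05% Triton X-100, 1% formaldehyde, 1 ug/ml Hoechst) and their nuclei counted on 4× images. Treatment had been applied by pin tool the day after seeding as one drug alone or as a fixed anchor-drug dose with five library-drug doses (not always all listed) in √10 steps. Relative viability is the nuclei count of treated wells divided by that of vehicle wells, and values are medians of duplicate plates.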

NCI-H1793 = test system: NCI-H1793
How it was run: as §1

HOP-62 = test system: HOP-62
How it was run: as §1

NCI-H1792 = test system: NCI-H1792
How it was run: as §1

LC-2-ad = test system: LC-2-ad
How it was run: as §1

NCI-H1944 = test system: NCI-H1944
How it was run: as §1

NCI-H1915 = test system: NCI-H1915
How it was run: as §1

LXF-289 = test system: LXF-289
How it was run: as §1

LCLC-97TM1 = test system: LCLC-97TM1
How it was run: as §1

NCI-H2170 = test system: NCI-H2170
How it was run: as §1

EPLC-272H = test system: EPLC-272H
How it was run: as §1

HCC-366 = test system: HCC-366
How it was run: as §1

A-427 = test system: A-427
How it was run: as §1

NCI-H1755 = test system: NCI-H1755
How it was run: as §1

NCI-H2342 = test system: NCI-H2342
How it was run: as §1

NCI-H2085 = test system: NCI-H2085
How it was run: as §1

NCI-H358 = test system: NCI-H358
How it was run: as §1

SW 900 = test system: SW 900
How it was run: as §1

NCI-H460 = test system: NCI-H460
How it was run: as §1

LU99A = test system: LU99A
How it was run: as §1

NCI-H1975 = test system: NCI-H1975
How it was run: as §1

Work on `Clc1ccc(Nc2nnc(Cc3ccncc3)c3ccccc23)cc1` [Vatalanib] + NC(=O)Nc1cc(-c2cccc(F)c2)sc1C(=O)N[C@H]1CCCNC1 [AZD7762] (partner 0.2 µM) yielded a relative viability (HCC-78; first compound 0.04 µM) of 0.566, a relative viability (HCC-78; first compound 0.1265 µM) of 0.633 and a relative viability (HCC-78; first compound 0.4 µM) of 0.59. It also gave a relative viability (HCC-78; first compound 1.265 µM) of 0.562, a relative viability (HCC-78; first compound 4 µM) of 0.547 and a relative viability (NCI-H1793; first compound 0.04 µM) of 0.518. For the same compound, the relative viability (NCI-H1793; first compound 0.1265 µM) was 0.311, the relative viability (NCI-H1793; first compound 0.4 µM) was 0.714 and the relative viability (NCI-H1793; first compound 1.265 µM) was 0.243. It also gave a relative viability (NCI-H1793; first compound 4 µM) of 0.286, a relative viability (HOP-62; first compound 0.04 µM) of 0.792 and a relative viability (HOP-62; first compound 0.1265 µM) of 0.618. For the same compound, the relative viability (HOP-62; first compound 0.4 µM) was 0.603, the relative viability (HOP-62; first compound 1.265 µM) was 0.695 and the relative viability (HOP-62; first compound 4 µM) was 0.681. The relative viability (NCI-H1792; first compound 0.04 µM) was 0.723, the relative viability (NCI-H1792; first compound 0.1265 µM) was 0.663 and the relative viability (NCI-H1792; first compound 0.4 µM) was 0.728. For the same compound, the relative viability (NCI-H1792; first compound 1.265 µM) was 0.503, the relative viability (NCI-H1792; first compound 4 µM) was 0.581 and the relative viability (LC-2-ad; first compound 0.04 µM) was 0.897. The relative viability (LC-2-ad; first compound 0.1265 µM) was 0.762, the relative viability (LC-2-ad; first compound 0.4 µM) was 0.92 and the relative viability (LC-2-ad; first compound 1.265 µM) was 0.785. It also gave a relative viability (LC-2-ad; first compound 4 µM) of 0.817, a relative viability (NCI-H1944; first compound 0.04 µM) of 0.467 and a relative viability (NCI-H1944; first compound 0.1265 µM) of 0.463. The relative viability (NCI-H1944; first compound 0.4 µM) was 0.623, the relative viability (NCI-H1944; first compound 1.265 µM) was 0.46 and the relative viability (NCI-H1944; first compound 4 µM) was 0.468. The relative viability (NCI-H1915; first compound 0.04 µM) was 0.717, the relative viability (NCI-H1915; first compound 0.1265 µM) was 0.665 and the relative viability (NCI-H1915; first compound 0.4 µM) was 0.716. The relative viability (NCI-H1915; first compound 1.265 µM) was 0.653, the relative viability (NCI-H1915; first compound 4 µM) was 0.661 and the relative viability (LXF-289; first compound 0.04 µM) was 1.14. The relative viability (LXF-289; first compound 0.1265 µM) was 0.97, the relative viability (LXF-289; first compound 0.4 µM) was 1.21 and the relative viability (LXF-289; first compound 1.265 µM) was 1.01. For the same compound, the relative viability (LXF-289; first compound 4 µM) was 1.03, the relative viability (LCLC-97TM1; first compound 0.04 µM) was 0.24 and the relative viability (LCLC-97TM1; first compound 0.1265 µM) was 0.263. It also gave a relative viability (LCLC-97TM1; first compound 0.4 µM) of 0.222, a relative viability (LCLC-97TM1; first compound 1.265 µM) of 0.172 and a relative viability (LCLC-97TM1; first compound 4 µM) of 0.23. It also gave a relative viability (NCI-H2170; first compound 0.04 µM) of 0.988, a relative viability (NCI-H2170; first compound 0.1265 µM) of 0.77 and a relative viability (NCI-H2170; first compound 0.4 µM) of 0.892. It also gave a relative viability (NCI-H2170; first compound 1.265 µM) of 0.837, a relative viability (NCI-H2170; first compound 4 µM) of 0.785 and a relative viability (EPLC-272H; first compound 0.04 µM) of 0.0728. For the same compound, the relative viability (EPLC-272H; first compound 0.1265 µM) was 0.167, the relative viability (EPLC-272H; first compound 0.4 µM) was 0.212 and the relative viability (EPLC-272H; first compound 1.265 µM) was 0.216. The relative viability (EPLC-272H; first compound 4 µM) was 0.207, the relative viability (HCC-366; first compound 0.04 µM) was 0.325 and the relative viability (HCC-366; first compound 0.1265 µM) was 0.253. It also gave a relative viability (HCC-366; first compound 0.4 µM) of 0.32, a relative viability (HCC-366; first compound 1.265 µM) of 0.194 and a relative viability (HCC-366; first compound 4 µM) of 0.226. The relative viability (A-427; first compound 0.04 µM) was 0.797, the relative viability (A-427; first compound 0.1265 µM) was 0.736 and the relative viability (A-427; first compound 0.4 µM) was 0.761. It also gave a relative viability (A-427; first compound 4 µM) of 0.64, a relative viability (NCI-H1755; first compound 0.04 µM) of 0.451 and a relative viability (NCI-H1755; first compound 0.1265 µM) of 0.406. For the same compound, the relative viability (NCI-H1755; first compound 0.4 µM) was 0.489, the relative viability (NCI-H1755; first compound 1.265 µM) was 0.418 and the relative viability (NCI-H1755; first compound 4 µM) was 0.419. The relative viability (NCI-H2342; first compound 0.04 µM) was 0.453, the relative viability (NCI-H2342; first compound 0.1265 µM) was 0.537 and the relative viability (NCI-H2342; first compound 0.4 µM) was 0.378. It also gave a relative viability (NCI-H2342; first compound 1.265 µM) of 0.484, a relative viability (NCI-H2342; first compound 4 µM) of 0.45 and a relative viability (NCI-H2085; first compound 0.04 µM) of 1.12. It also gave a relative viability (NCI-H2085; first compound 0.1265 µM) of 1, a relative viability (NCI-H2085; first compound 0.4 µM) of 0.998 and a relative viability (NCI-H2085; first compound 1.265 µM) of 0.862. For the same compound, the relative viability (NCI-H2085; first compound 4 µM) was 0.928, the relative viability (NCI-H358; first compound 0.04 µM) was 0.694 and the relative viability (NCI-H358; first compound 0.1265 µM) was 0.441. The relative viability (NCI-H358; first compound 0.4 µM) was 0.57, the relative viability (NCI-H358; first compound 1.265 µM) was 0.446 and the relative viability (NCI-H358; first compound 4 µM) was 0.481. It also gave a relative viability (SW 900; first compound 0.04 µM) of 0.596, a relative viability (SW 900; first compound 0.1265 µM) of 0.653 and a relative viability (SW 900; first compound 0.4 µM) of 0.567. The relative viability (SW 900; first compound 1.265 µM) was 0.69, the relative viability (SW 900; first compound 4 µM) was 0.6 and the relative viability (NCI-H460; first compound 0.04 µM) was 0.589. For the same compound, the relative viability (NCI-H460; first compound 0.1265 µM) was 0.646, the relative viability (NCI-H460; first compound 1.265 µM) was 0.477 and the relative viability (NCI-H460; first compound 4 µM) was 0.596. For the same compound, the relative viability (LU99A; first compound 0.04 µM) was 0.351, the relative viability (LU99A; first compound 0.1265 µM) was 0.442 and the relative viability (LU99A; first compound 0.4 µM) was 0.345. The relative viability (LU99A; first compound 1.265 µM) was 0.258, the relative viability (LU99A; first compound 4 µM) was 0.287 and the relative viability (NCI-H1975; first compound 0.04 µM) was 0.731. For the same compound, the relative viability (NCI-H1975; first compound 0.1265 µM) was 0.66, the relative viability (NCI-H1975; first compound 0.4 µM) was 0.59 and the relative viability (NCI-H1975; first compound 1.265 µM) was 0.492. For the same compound, the relative viability (NCI-H1975; first compound 4 µM) was 0.568.
